# Assays:
# [1] = target: T1, collagenase of the human monocytic stock U937 (Homo sapiens, UniProt P03956); test: Activity on collagenase; type: biochemical; conditions: radiomarked collagen, 27° C., 16 hours; read-out: C150 (nM) collagenase
# T1 construct: the collagenase of the human monocytic stock U937; endogenous in cells; host or cells: U937 human monocytic cell line
# T1 sequence (P03956 100-469): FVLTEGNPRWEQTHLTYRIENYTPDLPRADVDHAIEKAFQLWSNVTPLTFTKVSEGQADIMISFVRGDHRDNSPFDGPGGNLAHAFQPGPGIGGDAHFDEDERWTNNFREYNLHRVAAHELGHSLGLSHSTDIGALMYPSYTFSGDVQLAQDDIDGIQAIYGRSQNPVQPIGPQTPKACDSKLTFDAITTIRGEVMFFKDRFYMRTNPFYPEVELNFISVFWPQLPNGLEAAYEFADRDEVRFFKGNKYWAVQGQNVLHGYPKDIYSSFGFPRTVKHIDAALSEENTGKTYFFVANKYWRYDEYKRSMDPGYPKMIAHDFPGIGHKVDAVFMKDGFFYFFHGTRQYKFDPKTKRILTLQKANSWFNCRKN
# [2] = system: femoral head cartilage of the rat implanted subcutaneously in mice; test: Inhibition of the breakdown of cartilage in vivo; conditions: 10 mg/kg i.p. twice a day, 21 days
# Protocol: The activities of the compounds of example 1 and example 10 comparatively to the compound BB16 were determined in a model of breakdown of cartilage in accordance with the operating mode described by Bottomley, K. M. K., Griffith, S. R. J., Rising, T. G., Steward, A. (Brit. J. Pharmacol. 21, 287-289, 1988). Femoral head cartilage of the rat, wrapped in sterile cotton, is implanted subcutaneously on the backs of mice. After 21 days, the mice are euthanized, the cartilages recovered and weighed. The animals are treated each day, twice a day, with one 10-mg/kg dose i.p.
# [3] = target: stromelysine of human origin (Homo sapiens, UniProt P08254); test: Activity on stromelysine; type: biochemical; conditions: radiomarked transferrin, 37° C., 16 hours; read-out: C150 (nM) stromelysine
# stromelysine of human origin, sequence (P08254 100-477): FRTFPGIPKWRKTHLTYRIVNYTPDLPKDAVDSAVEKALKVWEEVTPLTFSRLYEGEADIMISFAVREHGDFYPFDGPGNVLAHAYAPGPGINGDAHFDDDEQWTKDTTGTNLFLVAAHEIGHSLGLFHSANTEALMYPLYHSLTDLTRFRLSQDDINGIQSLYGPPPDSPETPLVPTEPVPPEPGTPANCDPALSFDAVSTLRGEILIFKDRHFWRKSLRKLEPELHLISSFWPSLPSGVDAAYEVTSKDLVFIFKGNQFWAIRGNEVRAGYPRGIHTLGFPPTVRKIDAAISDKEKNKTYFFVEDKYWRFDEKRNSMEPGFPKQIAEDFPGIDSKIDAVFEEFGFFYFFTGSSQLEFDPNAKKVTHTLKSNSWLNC
# Protocol: The stromelysine was incubated at 37° C. for 16 hours with radiomarked transferrin, and its activity was determined by the release of the soluble peptides produced by the enzymatic breakdown of the transferrin. The inhibiting concentration C150 for each compound was determined by measurement of the activity of the enzyme in the presence of the inhibitor at a concentration ranging between 10^−7 and 10^−12 M (the inhibitor is dissolved in the same manner as for collagenase).
# [4] = target: T2, 72 kDa gelatinase of human origin (Homo sapiens, UniProt P08253); test: Activity on gelatinase, synthetic substrate; type: biochemical; conditions: performed on synthetic substrate; read-out: C150 (nM) gelatinase 72 kDa**
# T2 sequence (P08253 110-660): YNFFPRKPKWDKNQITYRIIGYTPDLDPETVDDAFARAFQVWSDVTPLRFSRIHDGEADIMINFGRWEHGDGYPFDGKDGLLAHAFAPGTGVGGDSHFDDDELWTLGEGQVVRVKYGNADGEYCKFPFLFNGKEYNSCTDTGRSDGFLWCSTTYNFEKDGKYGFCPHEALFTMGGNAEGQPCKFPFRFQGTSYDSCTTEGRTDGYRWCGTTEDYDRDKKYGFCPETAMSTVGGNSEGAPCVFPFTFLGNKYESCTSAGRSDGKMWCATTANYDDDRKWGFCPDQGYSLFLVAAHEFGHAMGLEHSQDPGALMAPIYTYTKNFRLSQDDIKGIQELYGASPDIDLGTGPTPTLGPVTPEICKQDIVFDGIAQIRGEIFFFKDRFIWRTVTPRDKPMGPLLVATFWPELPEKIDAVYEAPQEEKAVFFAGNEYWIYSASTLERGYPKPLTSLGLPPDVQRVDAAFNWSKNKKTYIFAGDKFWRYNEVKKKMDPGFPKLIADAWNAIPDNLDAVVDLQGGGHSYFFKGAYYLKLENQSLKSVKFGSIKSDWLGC
# Protocol: The anti-gelatinase activity of the compounds according to the invention was determined on 72 kDa gelatinase of human origin, in accordance with the operating mode described by Knight, C. G., Willenbrock, F., Murphy, G. (FEBS Letters, 296 (3), 263-266, 1992).
# The gelatinase was incubated at 37° C. for 10 minutes, and its activity was determined by the increase in fluorescence of the product of Mca-Pro-Leu breakdown of the Mca-Pro-Leu-Gly-Leu-Dpa-Ala-Arg-NH2 synthetic substrate.
# The inhibiting concentration C150 for each compound was determined by measurement of the activity of the enzyme in the presence of the inhibitor at a concentration ranging between 10^−7 and 10^−12 M (the inhibitor is dissolved at a concentration of 10^−2 M in DMSO, then diluted successively by tenths in DMSO to 10^−4 M, then in the buffer: Tris, HCl 50 mM+0.05% Brij 35; CaCl2 10 mM; NaCl 0.15 M).
# [5] = target: 92 kDa gelatinase of human origin (Homo sapiens, UniProt P14780); test: Activity on gelatinase, radiomarked gelatin; type: biochemical; conditions: test performed with radiomarked gelatin; read-out: C150 (nM) gelatinase 92 kDa*
# 92 kDa gelatinase of human origin, sequence (P14780 94-707): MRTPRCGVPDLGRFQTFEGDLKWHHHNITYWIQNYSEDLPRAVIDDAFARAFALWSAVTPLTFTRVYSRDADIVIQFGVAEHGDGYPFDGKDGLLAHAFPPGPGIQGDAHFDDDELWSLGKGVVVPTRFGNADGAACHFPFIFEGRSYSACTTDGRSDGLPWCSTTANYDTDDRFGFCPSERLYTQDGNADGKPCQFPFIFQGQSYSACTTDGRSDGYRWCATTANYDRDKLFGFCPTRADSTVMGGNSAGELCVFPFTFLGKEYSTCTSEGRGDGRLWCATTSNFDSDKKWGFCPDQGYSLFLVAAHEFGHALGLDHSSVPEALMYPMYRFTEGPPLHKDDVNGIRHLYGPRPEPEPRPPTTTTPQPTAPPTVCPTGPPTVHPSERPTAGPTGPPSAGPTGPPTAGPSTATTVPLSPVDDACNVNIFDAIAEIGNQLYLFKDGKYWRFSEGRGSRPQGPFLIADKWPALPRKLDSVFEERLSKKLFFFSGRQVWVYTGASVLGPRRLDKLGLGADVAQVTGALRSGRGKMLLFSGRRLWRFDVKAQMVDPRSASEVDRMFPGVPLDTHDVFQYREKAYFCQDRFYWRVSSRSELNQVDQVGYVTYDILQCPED
# Method in brief: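 Inhibiting concentration (C150) derived from enzyme activity across inhibitor levels of 10^−7 to 10^−12 M. Read-out is soluble peptide released from radiolabelled gelatin by human 92 kDa gelatinase after 16 hours at 37° C.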
# [6] = system: release of TNF from the peritoneal macrophages of mice stimulated by LPS; test: Inhibition of the production of TNF in vitro; type: cell-based; conditions: Peritoneal macrophage; mouse peritoneal macrophages, LPS 100 ng/ml; read-out: C150 (μM) TNF
# [7] = system: female Balb/c mice (D-galactosamine + LPS shock); test: Inhibition of septic shock; type: in vivo; conditions: i.p. 30 minutes prior to induction of the shock; survival over 48 hours
# Protocol: Septic shock is induced in female Balb/c mice in accordance with the procedure described by Mohler, K. M. et al. (Nature, 370, 218-220, 1994). Briefly, the shock is induced by i.p. injection of 20 mg of D-galactosamine and i.v. injection of 20 ng of LPS. The survival of the animals is evaluated for the following 48 hours.
# The products to be tested are injected i.p. 30 minutes prior to induction of the shock. The compounds according to the invention protect from shock from 10 to 50 mg/kg. For instance, the compound of example 10 protects at 50 mg/kg.
# [8] = system: metalloproteinase (MMP); conditions: J. Am. Chem. Soc. (1995), 117, 4671-4682; cited from earlier work
IC50 [1] [nM],IC50 [3] [nM],IC50 [4] [nM],IC50 [5] [nM],IC50 [6] [µM],SMILES,inhibition of weight loss of the cartilage [2] [%],dose that protects from septic shock [7] [mg/kg],"loss of activity (factor) on substitution of the hydrogen with a methyl, compound V versus compound VI [8]"
5,15,1,1,1,CNC(=O)[C@H](Cc1ccc(OC)cc1)NC(=O)[C@](O)(CC(C)C)[C@H](C)C(=O)NO [Example 1],42,,
4,48,1,2,0.4,"CNC(=O)[C@H](Cc1ccc(Cl)cc1)NC(=O)[C@](O)(CC(C)C)[C@H](C)C(=O)NO [Example 10, N-2(S) [-1(S) (hydroxycarbamoyl)-1 ethyl]-2(S) hydroxy-4-methyl pentanoyl L4-chlorophenylalanine N-methylamide]",65,50,
,,,,,CNC(=O)[C@H](Cc1c[nH]c2ccccc12)NC(=O)[C@@](C)(CC(=O)NO)CC(C)C [compound VI],,,300
